Series [1] has as its system HIV-1 (IIIB) in MT-4 cells. The series can be described thus: MT-4 HIV Assay (inhibition of HIV-1 replication, Cell Titer Glo readout). To be noted: Human immunodeficiency virus 1, MT4, 120 h, 5 days incubation. Type of series: cell-based. How it is done: (§1) Compounds were tested in a high-throughput 384-well assay format for their ability to inhibit the replication of HIV-1 (IIIB) in MT-4 cells. Compounds were serially diluted (1:3) in DMSO on 384-well polypropylene plates and further diluted 200-fold into complete RPMI media (10% FBS, 1% P/S) using the Biotek Micro Flow and Agilent ECHO acoustic dispenser. Each plate contained up to 8 test compounds, with negative (No Drug Control) and 5 uM AZT positive controls. MT-4 cells were pre-infected with 10 uL of either RPMI (mock-infected) or a fresh 1:250 dilution of an HIV-1 (IIIB) concentrated virus stock. Infected and uninfected MT-4 cells were further diluted in complete RPMI media and added to each plate using a Micro Flow dispenser. After 5 days incubation in a humidified and temperature controlled incubator (37° C.), Cell Titer Glo (Promega) was added to the assay plates to quantify the amount of luciferase.
(In ATP-based viability assays light output follows the ATP content of the culture.)

The target in a further series is T1, recombinant HIV protease (Human immunodeficiency virus type 1 group M subtype B, UniProt P04585).
T1 construct: recombinant HIV protease
The series is described as follows: HIV Protease Enzyme Inhibition (PI) Activity, fluorogenic enzymatic assay. Type of series: biochemical. How it is done:
HIV Protease Enzyme Inhibition (PI) Activity
Inhibitor potency against HIV protease can be measured using an enzymatic assay with a fluorogenic readout. To a reaction buffer containing 100 mM ammonium acetate at pH 5.3, 100 mM NaCl, 1 mM EDTA, 1 mM DTT, 0.25 mg/mL BSA and 1% DMSO are added 10 nM of recombinant HIV protease (concentration based on protein monomer) and test compound at one of various concentrations. After a 10-minute pre-incubation, the enzymatic reaction is initiated by the addition of the fluorogenic substrate (2-aminobenzoyl)Thr-Ile-Nle-(p-nitro)Phe-Gln-Arg (Bachem; Product No. H-2992) (SEQ ID NO: 1) to a final concentration of 40 μM. The total volume of the assay solution is 100 μL. The reaction is measured over 10 minutes on a Tecan Infinite M1000 plate reader using an excitation wavelength of 320 nm and a detection wavelength of 420 nm. The slopes of the progress curves are the measure of reaction rates. Reaction rates are plotted as a function of inhibitor concentration, and the data are fit with a four-parameter logistic fit using Graphpad PRISM software to yield IC50 values.

Series [2] concerns HIV-1 (IIIB) in MT-4 cells. The series is described as follows: MT-4 HIV High Resolution Antiviral Assay. Type of series: cell-based. The conditions noted are these: EC95=(19)^1/hill coefficient x EC50. How it is done: as §1
Series [3] relates to single replication cycle recombinant virus containing the protease and reverse transcriptase coding regions of HIV-1 from a patient blood sample. It counts as cell-based. The conditions noted are these: for mean fold change in susceptibility: mean over the resistant panel of Table 2. The source says: Resistance testing was done by Monogram Biosciences using their proprietary PhenoSense HIV assay. This assay evaluates drug susceptibility by using a single replication cycle recombinant virus containing the protease (amino acids 1-99 plus p7/p1/p6 gag cleavage sites) and reverse transcriptase (amino acids 1-304) coding regions of HIV-1 from a patient blood sample.

The nature of a further series: in vitro. To be noted: human, microsomes. The protocol: Liver Microsomal Stability Protocol
Test compounds and one control compound (verapamil) were tested in 3 different species in duplicate sets.
Reaction composition (in each incubation well) contains:
After plates were vortexed, they were centrifuged for 30 minutes to remove proteins. About 100 μL supernatant was removed to a new plate and diluted with 150 μL water. About 20 μL of the mixture was injected into LC/MS/MS system to monitor the compound's response. In vitro measured t1/2 was used to calculate Clint values.

[4] abbreviates: 10 nM recombinant HIV protease, pH 5.3, 40 μM fluorogenic substrate, read-out: HIV PI IC50.
Where [5] appears, read: Resistance mutations D30N L33F N88D L90M.
Setting [6] is: Resistance mutations L10F L33F M46I I50V V82A N88D L89V.
[7] abbreviates: Resistance mutations L10F M46I I47V I50V I54V G73S I84V L90M.
Setting [8] is: Resistance mutations L10F M46L I54V V82A 184V.
Setting [9] is: Resistance mutations L10F V32I M46I I47V I50V I54L I84V.
[10] abbreviates: Resistance mutations L10F/L D30N I54V N88D L90M.
The mark [11] stands for this setting: Resistance mutations L10F/L D30N L33F I54L N88D L90M.
The mark [12] stands for this setting: Resistance mutations L10I I50 V82A L90M.
The mark [13] stands for this setting: Resistance mutations L10I L33F G48V I50L I54V/I V82A.
Setting [14] is: Resistance mutations L10I L33F M46I I54V V82A I84V.
Where [15] appears, read: Resistance mutations L10I L33F M46L G48V I54M V82A I84V L90M.
Setting [16] is: Resistance mutations L10I L33F/L G48V G73S V82A.
Where [17] appears, read: Resistance mutations L10I M46I G48V I50V V82A L90M.
[18] abbreviates: Resistance mutations L10I M46I I50V.
Setting [19] is: Resistance mutations L10I M46L I54V V82A.
[20] abbreviates: Resistance mutations L10I M46L I54V V82F L90M.
[21] abbreviates: Resistance mutations L10I V32I L33F M46L I54L I84V L89V.
Setting [22] is: Resistance mutations L10I V32I M46I I47V G48V I54M V82T L90M.
Setting [23] is: Resistance mutations L10I V32I M46I I47V I50V I54L L90M.
Setting [24] is: Resistance mutations L10V L33F I50L L90M.
Where [25] appears, read: Resistance mutations L10V L33F M46I I54V V82A I84V L90M/L.
Where [26] appears, read: Resistance mutations L10V/L M46I I50L V82A.
The mark [27] stands for this setting: Resistance mutations L33F M46I I50V L76V.
The mark [28] stands for this setting: Resistance mutations M46I L76V I84V.

Read-outs that look alike come from different tables or passages of the source. Some results are limits rather than exact numbers.

Usually EC50 stands for the concentration giving half of the maximal effect. In general, IC50 refers to the midpoint of a concentration-inhibition curve. Broadly, the EC95 is the point of the concentration-response curve where the effect stands at 95%. Lower therefore signals an effect from little substance. The term half-life denotes how long it takes for the measured level to halve. A high value points to slow loss.

`CC(C)(C[C@]1(c2ccc(-c3ccc(S(C)(=O)=O)cc3F)cc2)NC(=N)N([C@H](COC(=O)NC2(C(F)F)CC2)c2ccc(Cl)c(-c3ncnn3C(F)F)c2)C1=O)C(F)(F)F` [Compound 4] returned an EC50 in series [1] of 11.3 nM. For the same molecule, the IC50 on recombinant HIV protease (setting [4]) came to 2.4 nM.

For the molecule `CC(C)(C[C@]1(c2ccc(-c3ccn(C(F)F)n3)cc2)NC(=N)N([C@H](COC(=O)NC2(C(F)F)CC2)c2ccc(Cl)c(-c3ncnn3C(F)F)c2)C1=O)C(F)(F)F` [Compound 8, (S)-2-(4-chloro-3-(1-(difluoromethyl)-1H-1,2,4-triazol-5-yl)phenyl)-2-((R)-4-(4-(1-(difluoromethyl)-1H-pyrazol-3-yl)phenyl)-2-imino-5-oxo-4-(3,3,3-trifluoro-2,2-dimethylpropyl)imidazolidin-1-yl)ethyl (1-(difluoromethyl)cyclopropyl)carbamate], in series [1], the concentration for a half-maximal effect (EC50) came to 8.4 nM. Also, the IC50 on recombinant HIV protease (setting [4]) is 2 nM.

Turning to `CC(C)(C[C@]1(c2ccc(-c3ccc(S(C)(=O)=O)c(F)c3)cc2)NC(=N)N([C@H](COC(=O)NC2(C(F)F)CC2)c2ccc(Cl)c(-c3ncnn3C(F)F)c2)C1=O)C(F)(F)F` [Compound 3], the EC50 in series [1] was 11.1 nM. The IC50 on recombinant HIV protease (setting [4]) is 2.9 nM.

In turn, `CC(C)(C[C@]1(c2ccc(-c3cnn(C(F)F)c3)cc2)NC(=N)N([C@H](COC(=O)NC2(C(F)F)CC2)c2ccc(Cl)c(-c3ncnn3C(F)F)c2)C1=O)C(F)(F)F` [Compound 7] showed a concentration for an effect of 95% (EC95) in series [2] of 17.8 nM. In series [1], this molecule yielded an EC50 of 7.8 nM. Moreover, the “Fold Change in EC50” value is given as 3.62 in series [3] (setting [5]); 0.58 in series [3] (setting [6]); 3.51 in series [3] (setting [7]); 0.91 in series [3] (setting [8]); 1.08 in series [3] (setting [9]); 5.32 in series [3] (setting [10]). The “Fold Change in EC50” value in series [3] (setting [11]) was 2.57; in series [3] (setting [12]), 1.7; in series [3] (setting [13]), 0.72; in series [3] (setting [14]), 2.49; in series [3] (setting [15]), 2.9; in series [3] (setting [16]), 2.34. The “Fold Change in EC50” value was 9.22 in series [3] (setting [17]); 2.2 in series [3] (setting [18]); 5.84 in series [3] (setting [19]); 4.33 in series [3] (setting [20]); 0.82 in series [3] (setting [21]); 2.84 in series [3] (setting [22]). Moreover, the “Fold Change in EC50” value in series [3] (setting [23]) is 3.92; in series [3] (setting [24]), 3.09; in series [3] (setting [25]), 2.6; in series [3] (setting [26]) it was 4.77; in series [3] (setting [27]), 1.39; in series [3] (setting [28]), 2.04. Moreover, the “mean fold change in susceptibility” value in series [3] worked out at 2.4. For the same molecule, the 50% inhibitory concentration (IC50) on recombinant HIV protease (setting [4]) turned out to be 1.8 nM.

`COC(=O)N[C@H](C(=O)N[C@@H](Cc1ccccc1)[C@@H](O)CN(Cc1ccc(-c2ccccn2)cc1)NC(=O)[C@@H](NC(=O)OC)C(C)(C)C)C(C)(C)C` [Atazanavir, methyl N-[(2S)-1-[2-[(2S,3S)-2-hydroxy-3-[[(2S)-2-(methoxycarbonylamino)-3,3-dimethylbutanoyl]amino]-4-phenylbutyl]-2-[(4-pyridin-2-ylphenyl)methyl]hydrazinyl]-3,3-dimethyl-1-oxobutan-2-yl]carbamate, reference compound]: in the series “in vitro”, the half-life at 1 μM lay within 0.433 to 1.78 h. Besides, the “Fold Change in EC50” value in series [3] (setting [5]) is 4.68; in series [3] (setting [6]) it was 1.25; in series [3] (setting [7]), 19; in series [3] (setting [8]), 73; in series [3] (setting [9]), 5.44; in series [3] (setting [10]), 29. Moreover, the “Fold Change in EC50” value in series [3] (setting [11]) is 15; in series [3] (setting [12]), 33; in series [3] (setting [13]), 70; in series [3] (setting [14]), 44; in series [3] (setting [15]), 70; in series [3] (setting [16]) it was over 91. In addition, the “Fold Change in EC50” value was 39 in series [3] (setting [17]); 2.39 in series [3] (setting [18]); 9.73 in series [3] (setting [19]); 24 in series [3] (setting [20]); 89 in series [3] (setting [21]); 9.49 in series [3] (setting [22]). In addition, the “Fold Change in EC50” value in series [3] (setting [23]) was 25; in series [3] (setting [24]) it was over 91; in series [3] (setting [25]), 9.69; in series [3] (setting [26]), 69; in series [3] (setting [27]), 1.84; in series [3] (setting [28]) it was 1.36. In series [3], the “mean fold change in susceptibility” value is given as 17.7.

On to `CC(C)(C[C@]1(c2ccc(-c3ccc(F)cc3)cc2)NC(=N)N([C@H](COC(=O)NC2(C(F)F)CC2)c2ccc(Cl)c(-c3ncnn3C(F)F)c2)C1=O)C(F)(F)F` [Compound 5], for which the EC50 in series [1] came to 63.1 nM. In addition, the half-maximal inhibitory concentration (IC50) on recombinant HIV protease (setting [4]) was 4.5 nM.

Turning to `CC(C)(C[C@]1(c2ccc(-c3cccc(S(C)(=O)=O)c3)cc2)NC(=N)N([C@H](COC(=O)NC2(C(F)F)CC2)c2ccc(Cl)c(-c3ncnn3C(F)F)c2)C1=O)C(F)(F)F` [Compound 2], it took 27.5 nM to reach a half-maximal effect in series [1] (EC50). Moreover, at recombinant HIV protease (setting [4]), the IC50 turned out to be 2.9 nM.

In series [2], `CC(C)(C[C@]1(c2ccc(-c3ccc(S(C)(=O)=O)cc3)cc2)NC(=N)N([C@H](COC(=O)NC2(C(F)F)CC2)c2ccc(Cl)c(-c3ncnn3C(F)F)c2)C1=O)C(F)(F)F` [Compound 1, (S)-2-(4-chloro-3-(1-(difluoromethyl)-1H-1,2,4-triazol-5-yl)phenyl)-2-((R)-2-imino-4-(4′-(methylsulfonyl)-[1,1′-biphenyl]-4-yl)-5-oxo-4-(3,3,3-trifluoro-2,2-dimethylpropyl)imidazolidin-1-yl)ethyl (1-(difluoromethyl)cyclopropyl)carbamate] yielded an EC95 of 24.9 nM. The molecule also showed an EC50 in series [1] of 13.2 nM. In addition, at recombinant HIV protease (setting [4]), the concentration for half-maximal inhibition (IC50) is 1.8 nM.

Molecule `CC(C)(C[C@]1(c2ccc(-c3cn(C(F)F)cn3)cc2)NC(=N)N([C@H](COC(=O)NC2(C(F)F)CC2)c2ccc(Cl)c(-c3ncnn3C(F)F)c2)C1=O)C(F)(F)F` [Compound 9, (S)-2-(4-chloro-3-(1-(difluoromethyl)-1H-1,2,4-triazol-5-yl)phenyl)-2-((R)-4-(4-(1-(difluoromethyl)-1H-imidazol-4-yl)phenyl)-2-imino-5-oxo-4-(3,3,3-trifluoro-2,2-dimethylpropyl)imidazolidin-1-yl)ethyl (1-(difluoromethyl)cyclopropyl)carbamate] showed an EC50 in series [1] of 26.3 nM. The 50% inhibitory concentration (IC50) at recombinant HIV protease turned out to be 5.7 nM.

Take `CC(C)(C[C@]1(c2ccc(-c3cccc(F)c3)cc2)NC(=N)N([C@H](COC(=O)NC2(C(F)F)CC2)c2ccc(Cl)c(-c3ncnn3C(F)F)c2)C1=O)C(F)(F)F` [Compound 6]: the EC50 in series [1] was 50 nM. For the same molecule, the half-maximal inhibitory concentration (IC50) on recombinant HIV protease (setting [4]) turned out to be 2.3 nM.

These data come from US11318119B2 (Gilead Sciences, Inc., priority 2019, dated 2022).
